For series [1], the system named is PCS-201-012 cells. Details: method as in PMID 27488500. The following applies: fibroblast cells (PCS-201-012 column), cisplatin; read-out: Cytotoxic activity IC50; cited from earlier work.
For series [2], the system named is SH-SY5Y cells. Particulars: read-out: Cytotoxic activity IC50, cisplatin positive control; cited from earlier work.
Series [3] has as its system HeLa cells. Particulars: read-out: Cytotoxic activity IC50, cisplatin positive control; cited from earlier work.
The nature of series [4]: WST-8 cytotoxicity assay. The series is classed as cell-based, human. Particulars: human, SH-SY5Y cells, SH-SY5Y, 48 h, read-out: Cell viability. On the procedure:
(§1) The cells in culture were frequently sub-cultured, about 2–3 times weekly, until they reached a confluence of 80–90%. The experiments were organised into seven cell groups as follows: group I served as the control, while groups II through VII were pre-treated with varying dosages of the synthesised ureas (ranging from 12.5 µM to 500 µM). The cytotoxic potential of these ureas was assessed in vitro using the Cell Viability Detection Kit-8 (CVDK-8, Ecotech Biotechnology, Erzurum, Turkey), a method based on WST-8 quantification for human primary dermal fibroblasts and cervical cancer cells. Healthy fibroblast, HeLa, and SH-SY5Y cells were allocated in 96-well plates, with each well containing 5 × 10^3 cells in 100 µL of DMEM:F12 (supplemented with 1% penicillin/streptomycin and 10% FBS). After an overnight growth, these cells were exposed to specified concentrations of the synthesised ureas for a duration of 48 h at 37 °C in a 5% CO2 atmosphere. Cisplatin acted as the positive control with concentration gradients of 0–250 µM for HeLa cells and 0–20 µM for the SH-SY5Y cells. Post incubation, in sterile, dimly lit conditions, 10% WST-8 solution was added to every well and further incubated at 37 °C within 5% CO2 for another 3–4 h. The optical density of the 96-well plate was gauged at a 450 nm wavelength using a spectrophotometer (BioTek, EPOCH, Santa Clara, CA). The control group’s main purpose was to measure the absorbance of just the cells and the growth medium.
In general terms: Tetrazolium assays rely on reduction of a dye to a coloured formazan, in cell work by metabolically active cells.

Series [5] deals with HeLa cells. Description: WST-8 cytotoxicity assay. Format: cell-based, human. Particulars: Homo sapiens; HeLa cells, 48 h, WST-8, n = 4; read-out: Cytotoxic activity IC50. On the procedure:
as §1

Series [6] concerns SH-SY5Y cells. Description: WST-8 cytotoxicity assay. Format: cell-based, human. Particulars: Homo sapiens, SH-SY5Y, 48 h, SH-SY5Y, 48 h, WST-8, n = 4; read-out: Cytotoxic activity IC50. On the procedure:
as §1

Series [7] in a line: WST-8 cytotoxicity assay. Particulars: human, PCS-201-012 healthy primary dermal fibroblast cells, PCS-201-012 healthy fibroblast cells, WST-8, n = 4, read-out: Cytotoxic activity IC50. Format: cell-based. On the procedure:
as §1

For series [8], the system named is all tested bacterial strains. The series can be described thus: Antibacterial activity (MIC) summarised over all tested bacterial strains. Format: cell-based. The following applies: against the studied bacteria. On the procedure: The bacteria employed for evaluation included Acinetobacter baumannii ATCC 1605, Enterococcus faecalis ATCC 49452, Pseudomonas aeruginosa ATCC 9027, and Staphylococcus aureus MRSA ATCC 43300. These strains were sourced from the Molecular Biology and Genetics Laboratory at Erzurum Technical University. They were immersed in Mueller-Hinton Broth (MHB) and then incubated at a temperature of 37 °C for a duration of 16–24 h.
Bacteria were adjusted to a McFarland standardisation of 0.5, equivalent to a cell density of 1.5 × 10^8/ml, and were then introduced into MHB. Subsequently, a 100 μl volume of this bacterial mixture was spread onto Mueller-Hinton agar plates. Sterile empty discs were then treated with the formulated ureas at concentrations of 1000, 500, and 250 µM. Oflaxin ([…]) and netilmicin ([…]) were used as positive controls, while DMSO served as the negative control. The plates were then placed in an incubator at 37 °C for a period ranging from 24 to 72 h, depending on the optimal conditions. Post incubation, the diameter of the inhibition zones was gauged to determine the antibacterial efficacy. […]
The synthesised ureas’ minimum inhibitory concentrations (MICs) against the bacterial samples were ascertained using the microdilution broth technique. […] Post incubation, the growth of the bacteria was assessed at 600 nm using the Fluoroskan Ascent® FL. […]

Like-named read-outs stand apart in the source and are kept apart here. Where only a bound is given, the exact number is not on record here.

On to `N.N.[Cl][Pt][Cl]` [Cisplatin, cis-diammineplatinum(II) dichloride], for which the figures for the IC50 in series [1], in series [2] and in series [3] were more than 100 µM, 10 µM and more than 50 µM, respectively.

In the case of `COc1cccc2c1CCCC2NC(=O)NCCc1ccccc1` (stereo not shown) [Compound 14, 1-(5-methoxy-1,2,3,4-tetrahydronaphthalen-1-yl)-3-phenethylurea], the viability at 48 h, 12.5 µM in series [4] (12.5 µM) stood at 25.5%. Moreover, in series [4] (25 µM), the viability at 48 h, 25 µM was 8.4%. The viability at 48 h, 50 µM in series [4] (50 µM) came to 4.68%. Besides, the viability at 48 h, 100 µM in series [4] (100 µM) worked out at 4.87%. The viability at 48 h, 300 µM in series [4] (300 µM) was determined as 3.77%. Besides, the viability at 48 h, 500 µM in series [4] (500 µM) was found to be 1.67%. Besides, the IC50 stood at 2600 nM in series [5] and 9.7 µM in series [6]. For the same compound, in series [7], the IC50 at 48 h was 7.9 µM. Moreover, in series [8], the “Antibacterial properties (in words)” value is given as “did not display any antibacterial properties”.

Usually IC50 stands for the concentration at which inhibition is half-maximal. For orientation: viability means a per cent measure of how many cells are alive, often set against a control.

The values above are taken from paper PMC11721939, “Novel tetrahydronaphthalen-1-yl-phenethyl ureas: synthesis and dual antibacterial-anticancer activities” (Journal of Enzyme Inhibition and Medicinal Chemistry, 2023).
